Measured values reported in patent publication US20230085307A1, “PYRIDAZINONE COMPOUND AND HERBICIDE” (NISSAN CHEMICAL CORPORATION, priority 2019, published 2023).

Tests used:
[1] = tested on: barnyard grass; assay: Test Example 3: herbicidal effect by foliage application, Wagner pot (Table 18, symbol H); type: in vivo, barnyard grass (Echinochloa crus-galli); settings: 320 g/ha
In short: (§1)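 Plants were sown in alluvial soil held under 0.1–0.5 cm standing water and grown 14 days in a greenhouse at 25–30 °C. An emulsifiable formulation, water-diluted to the set dose, was then sprayed onto the foliage, and effects were scored three weeks later using previously defined criteria.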

[2] = tested on: Chinese sprangletop; assay: Test Example 3: herbicidal effect by foliage application, Wagner pot (Table 18, symbol D); type: in vivo, chinese sprangletop (Leptochloa chinensis); settings: 320 g/ha
In short: as §1

[3] = tested on: rice flat sedge; assay: Test Example 3: herbicidal effect by foliage application, Wagner pot (Table 18, symbol E); type: in vivo, rice flat sedge (Cyperus iria); settings: 320 g/ha
In short: as §1

[4] = tested on: southern crabgrass; assay: Test Example 4: herbicidal effect by soil treatment (Table 19, symbol F); type: in vivo, southern crabgrass (Digitaria ciliaris); settings: AAH 320 g/ha
In short: (§2)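 Scoring uses the grading scale of an earlier test, three weeks post-application. Treatment consists of spraying a diluted emulsion formulation across the surface of sterilized diluvial soil in which seeds are buried near 1.5 cm deep; boxes are kept in a greenhouse between 25° C. and 30° C.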

[5] = tested on: green foxtail; assay: Test Example 4: herbicidal effect by soil treatment (Table 19, symbol G); type: in vivo, green foxtail (Setaria viridis); settings: AAH 320 g/ha
In short: as §2

[6] = tested on: barnyard grass; assay: Test Example 4: herbicidal effect by soil treatment (Table 19, symbol H); type: in vivo, barnyard grass (Echinochloa crus-galli); settings: AAH 320 g/ha
In short: as §2

[7] = tested on: wild oat; assay: Test Example 4: herbicidal effect by soil treatment (Table 19, symbol I); type: in vivo, wild oat (Avena fatua); settings: AAH 320 g/ha
In short: as §2

[8] = tested on: Italian ryegrass; assay: Test Example 4: herbicidal effect by soil treatment (Table 19, symbol K); type: in vivo, Italian ryegrass (Lolium multiflorum); settings: AAH 320 g/ha
In short: as §2

[9] = tested on: windgrass; assay: Test Example 4: herbicidal effect by soil treatment (Table 19, symbol L); type: in vivo, windgrass (Apera spica-venti); settings: AAH 320 g/ha
In short: as §2

[10] = tested on: velvetleaf; assay: Test Example 4: herbicidal effect by soil treatment (Table 19, symbol M); type: in vivo, velvetleaf (Abutilon theophrasti); settings: AAH 320 g/ha
In short: as §2

[11] = tested on: redroot pigweed; assay: Test Example 4: herbicidal effect by soil treatment (Table 19, symbol N); type: in vivo, redroot pigweed (Amaranthus retroflexus); settings: AAH 320 g/ha
In short: as §2

[12] = tested on: lambsquarters; assay: Test Example 4: herbicidal effect by soil treatment (Table 19, symbol O); type: in vivo, lambsquarters (Chenopodium album); settings: AAH 320 g/ha
In short: as §2

[13] = tested on: chickweed; assay: Test Example 4: herbicidal effect by soil treatment (Table 19, symbol P); type: in vivo, common chickweed (Stellaria media); settings: AAH 320 g/ha
In short: as §2

[14] = tested on: persian speedwell; assay: Test Example 4: herbicidal effect by soil treatment (Table 19, symbol R); type: in vivo, Persian speedwell (Veronica persica); settings: AAH 320 g/ha
In short: as §2

[15] = tested on: southern crabgrass; assay: Test Example 5: herbicidal effect by foliage application, plastic box (Table 20, symbol F); type: in vivo, southern crabgrass (Digitaria ciliaris); settings: foliage application, AAH 320 g/ha, three weeks after application
In short: (§3)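 Post-emergence foliar test in sterilized diluvial soil. Compound applied as water-diluted emulsion at a predetermined rate to 14-day-old plants; evaluation at three weeks.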

[16] = tested on: green foxtail; assay: Test Example 5: herbicidal effect by foliage application, plastic box (Table 20, symbol G); type: in vivo, green foxtail (Setaria viridis); settings: foliage application, AAH 320 g/ha, three weeks after application
In short: as §3

[17] = tested on: barnyard grass; assay: Test Example 5: herbicidal effect by foliage application, plastic box (Table 20, symbol H); type: in vivo, barnyard grass (Echinochloa crus-galli); settings: foliage application, AAH 320 g/ha, three weeks after application
In short: as §3

[18] = tested on: wild oat; assay: Test Example 5: herbicidal effect by foliage application, plastic box (Table 20, symbol I); type: in vivo, wild oat (Avena fatua); settings: foliage application, AAH 320 g/ha, three weeks after application
In short: as §3

[19] = tested on: blackgrass; assay: Test Example 5: herbicidal effect by foliage application, plastic box (Table 20, symbol J); type: in vivo, blackgrass (Alopecurus myosuroides); settings: foliage application, AAH 320 g/ha, three weeks after application
In short: as §3

[20] = tested on: Italian ryegrass; assay: Test Example 5: herbicidal effect by foliage application, plastic box (Table 20, symbol K); type: in vivo, Italian ryegrass (Lolium multiflorum); settings: foliage application, AAH 320 g/ha, three weeks after application
In short: as §3

[21] = tested on: windgrass; assay: Test Example 5: herbicidal effect by foliage application, plastic box (Table 20, symbol L); type: in vivo, windgrass (Apera spica-venti); settings: foliage application, AAH 320 g/ha, three weeks after application
In short: as §3

[22] = tested on: velvetleaf; assay: Test Example 5: herbicidal effect by foliage application, plastic box (Table 20, symbol M); type: in vivo, velvetleaf (Abutilon theophrasti); settings: foliage application, AAH 320 g/ha, three weeks after application
In short: as §3

[23] = tested on: redroot pigweed; assay: Test Example 5: herbicidal effect by foliage application, plastic box (Table 20, symbol N); type: in vivo, redroot pigweed (Amaranthus retroflexus); settings: foliage application, AAH 320 g/ha, three weeks after application
In short: as §3

[24] = tested on: lambsquarters; assay: Test Example 5: herbicidal effect by foliage application, plastic box (Table 20, symbol O); type: in vivo, lambsquarters (Chenopodium album); settings: foliage application, AAH 320 g/ha, three weeks after application
In short: as §3

[25] = tested on: chickweed; assay: Test Example 5: herbicidal effect by foliage application, plastic box (Table 20, symbol P); type: in vivo, common chickweed (Stellaria media); settings: foliage application, AAH 320 g/ha, three weeks after application
In short: as §3

[26] = tested on: false cleavers; assay: Test Example 5: herbicidal effect by foliage application, plastic box (Table 20, symbol Q); type: in vivo, false cleavers (Galium spurium); settings: foliage application, AAH 320 g/ha, three weeks after application
In short: as §3

[27] = tested on: persian speedwell; assay: Test Example 5: herbicidal effect by foliage application, plastic box (Table 20, symbol R); type: in vivo, Persian speedwell (Veronica persica); settings: foliage application, AAH 320 g/ha, three weeks after application
In short: as §3

SMILES: CCCC(=O)Oc1c(OC)nn(C)c(=O)c1-c1c(-c2cc(F)c(F)c(F)c2)sc2ccccc12 [1-187]
- herbicidal effect on H (barnyard grass), rating 0-5 [1]: 0 (Herbicidal rate of 5% or less (almost no effect))
- herbicidal effect on D (Chinese sprangletop), rating 0-5 [2]: 0 (Herbicidal rate of 5% or less (almost no effect))
- herbicidal effect on E (rice flat sedge), rating 0-5 [3]: 3 (Herbicidal rate of 40% or more and less than 70%)
- F: southern crabgrass, herbicidal effect rating [4]: 0 (Herbicidal rate of 5% or less (almost no effect))
- G: green foxtail, herbicidal effect rating [5]: 0 (Herbicidal rate of 5% or less (almost no effect))
- H: barnyard grass, herbicidal effect rating [6]: 0 (Herbicidal rate of 5% or less (almost no effect))
- I: wild oat, herbicidal effect rating [7]: 0 (Herbicidal rate of 5% or less (almost no effect))
- K: Italian ryegrass, herbicidal effect rating [8]: 0 (Herbicidal rate of 5% or less (almost no effect))
- L: windgrass, herbicidal effect rating [9]: 0 (Herbicidal rate of 5% or less (almost no effect))
- M: velvetleaf, herbicidal effect rating [10]: 0 (Herbicidal rate of 5% or less (almost no effect))
- N: redroot pigweed, herbicidal effect rating [11]: 0 (Herbicidal rate of 5% or less (almost no effect))
- O: lambsquarters, herbicidal effect rating [12]: 4 (Herbicidal rate of 70% or more and less than 90%)
- P: chickweed, herbicidal effect rating [13]: 5 (Herbicidal rate of 90% or more (almost completely withered))
- R: persian speedwell, herbicidal effect rating [14]: 4 (Herbicidal rate of 70% or more and less than 90%)
- F: southern crabgrass, herbicidal effect [15]: 0 (Herbicidal rate of 5% or less (almost no effect))
- G: green foxtail, herbicidal effect [16]: 0 (Herbicidal rate of 5% or less (almost no effect))
- H: barnyard grass, herbicidal effect [17]: 0 (Herbicidal rate of 5% or less (almost no effect))
- I: wild oat, herbicidal effect [18]: 0 (Herbicidal rate of 5% or less (almost no effect))
- J: blackgrass, herbicidal effect [19]: 0 (Herbicidal rate of 5% or less (almost no effect))
- K: Italian ryegrass, herbicidal effect [20]: 0 (Herbicidal rate of 5% or less (almost no effect))
- L: windgrass, herbicidal effect [21]: 0 (Herbicidal rate of 5% or less (almost no effect))
- M: velvetleaf, herbicidal effect [22]: 4 (Herbicidal rate of 70% or more and less than 90%)
- N: redroot pigweed, herbicidal effect [23]: 4 (Herbicidal rate of 70% or more and less than 90%)
- O: lambsquarters, herbicidal effect [24]: 5 (Herbicidal rate of 90% or more (almost completely withered))
- P: chickweed, herbicidal effect [25]: 3 (Herbicidal rate of 40% or more and less than 70%)
- Q: false cleavers, herbicidal effect [26]: 0 (Herbicidal rate of 5% or less (almost no effect))
- R: persian speedwell, herbicidal effect [27]: 5 (Herbicidal rate of 90% or more (almost completely withered))
